Counter-ions that a name gives are not always drawn.

This note sets out measurements from patent publication US7612084B2, “Amine derivatives for the treatment of asthma and COPD” (Pfizer Inc, priority 2006, dated 2009).

In experiment [1] the target is human muscarinic M3 receptor (Homo sapiens, UniProt P20309). In words: Whole cell β-lactamase reporter assay in CHO cells expressing the hM3 receptor (antagonist activity). In kind it is cell-based. To be noted: 80 nM carbamyl choline, IC50 converted to Ki by Cheng-Prusoff. On the procedure:
Functional Assessment of Antagonist Activity Using a Whole Cell β-Lactamase Reporter Assay in CHO Cells Expressing the hM3 Receptor.
CHO (Chinese Hamster Ovary) cells recombinantly expressing the human muscarinic M3 receptor were transfected with the NFAT_β-Lac_Zeo plasmid. Cells were grown in DMEM with Glutamax-1, supplemented with 25 mM HEPES(Life Technologies 32430-027), containing 10% FCS (Foetal Calf Serum; Sigma F-7524), […] Sodium pyruvate (Sigma S-8636), NEAA (non-Essential Amino Acids; Invitrogen 11140-035) and […] Zeocin (Invitrogen R250-01).
Cells were harvested for assay when they reached 80-90% confluency using enzyme free cell Dissociation Solution (Life technologies 13151-014) incubated with the cells for 5 min at 37° C. in an atmosphere containing 5% CO2. Detached cells were collected in warmed growth media and centrifuged at 200 rpm for 10 min, washed in PBS (Phosphate Buffered Saline; Life Technologies 14190-094) and centrifuged again as just described. The cells were re-suspended at 2×10^5 cells/ml in growth medium (composition as described above). 20 μl of this cell suspension was added to each well of a 384 well black clear bottomed plate (Greiner Bio One 781091-PFI). The assay buffer used was PBS supplemented with 0.05% Pluronic F-127 (Sigma 9003-11-6) and 2.5% DMSO. Muscarinic M3 receptor signalling was stimulated using 80 nM carbamyl choline (Aldrich N240-9) incubated with the cells for 4 h at 37° C./5% CO2 and monitored at the end of the incubation period using a Tecan SpectraFluor+plate reader (λ−excitation 405 nm, emission 450 nm and 503 nm). Compounds under test were added to the assay at the beginning of the 4 h incubation period and compound activity measured as the concentration dependent inhibition of the carbamyl choline induced signal. Inhibition curves were plotted and IC50 values generated using a 4-parameter sigmoid fit and converted to Ki values using the Cheng-Prusoff correction and the KD value for carbamyl choline in the assay.
Background: A reporter such as luciferase makes a cellular process visible.

In experiment [2] the target is human adrenergic B2 receptor (Homo sapiens, UniProt P07550). Put plainly: Whole cell luciferase reporter assay in CHO cells expressing the hB2 receptor (agonist potency). In kind it is cell-based. To be noted: 4 h incubation, read-out: EC50 - beta2. How it is done: Functional Assessment of Agonist Potency and Efficacy Using a Whole Cell Luciferase Reporter Assay in CHO Cells Expressing the hB2 Receptor.
CHO (Chinese Hamster Ovary) cells recombinantly expressing the human adrenergic B2 receptor and transfected with a luciferase enzyme reporter gene were maintained in growth media composed of F12:DMEM (Sigma D6421) containing 10% Foetal Bovine Serum (FBS: Sigma F03921) 10 μg/ml puromycin (Sigma N277698), 0.5 mg/ml Geneticin G418 (Sigma G7034) and 2 mM L-glutamine (Sigma G7513). The cells were kept in sterile conditions at 37° C., in an atmosphere containing 5% CO2.
hB2 Luciferase Assay Protocol
Cells were harvested for assay when they reached 80-90% confluency using enzyme free cell Dissociation Solution (Life technologies 13151-014) incubated with the cells for 5 min at 37° C. in an atmosphere containing 5% CO2. Detached cells were collected in warmed growth media (composition described above), and re-suspended in assay media (F12:DMEM (Sigma D6421) containing 1% Foetal Bovine Serum (FBS: Sigma F03921), 10 μg/ml puromycin (Sigma N277698), 0.5 mg/ml Geneticin G418 (Sigma G7034) and 2 mM L-glutamine (Sigma G7513))to give a viable cell concentration of 1×10^6 cells/ml. 10 ul of this suspension was added to each well of a tissue culture treated low volume 384 well plate (Greiner788073) and the plate incubated in an atmosphere containing 5% CO2 at 37° C. for 2 h. Concentration ranges of test compounds were prepared in phosphate Buffered Saline containing 0.05% pluronic-F127 (Sigma P2443) and 2.5% DMSO. 2 μl of each test concentration were added to the appropriate 384 plate well and returned to the incubator for a further 4 h. At the end of the incubation period 4 μl of Steady-Glo reagent (Steady-Glo Luciferase assay system (Promega E2520) was added to each well and the plate read immediately in a Leadseeker Plate reader (Amersham Bioscience) using a 660 nm filter. Concentration effect curves were plotted and EC50 values generated using a 4-parameter sigmoid fit using an in-house data analysis programme. Isoprenaline was run in every assay as a reference standard.

Sequence of human adrenergic B2 receptor (P07550 whole entry): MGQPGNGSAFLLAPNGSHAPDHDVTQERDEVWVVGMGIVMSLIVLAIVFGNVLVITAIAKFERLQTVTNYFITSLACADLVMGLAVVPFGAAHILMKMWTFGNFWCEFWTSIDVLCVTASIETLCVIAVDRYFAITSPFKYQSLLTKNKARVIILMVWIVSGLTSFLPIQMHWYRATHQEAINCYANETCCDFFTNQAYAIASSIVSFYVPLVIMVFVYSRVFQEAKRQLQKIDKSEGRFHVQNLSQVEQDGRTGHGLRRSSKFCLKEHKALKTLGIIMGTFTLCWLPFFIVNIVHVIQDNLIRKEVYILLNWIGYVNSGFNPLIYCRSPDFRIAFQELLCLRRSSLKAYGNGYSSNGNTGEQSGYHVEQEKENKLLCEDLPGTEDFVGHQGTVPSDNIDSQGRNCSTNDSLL
Sequence of human muscarinic M3 receptor (P20309 whole entry): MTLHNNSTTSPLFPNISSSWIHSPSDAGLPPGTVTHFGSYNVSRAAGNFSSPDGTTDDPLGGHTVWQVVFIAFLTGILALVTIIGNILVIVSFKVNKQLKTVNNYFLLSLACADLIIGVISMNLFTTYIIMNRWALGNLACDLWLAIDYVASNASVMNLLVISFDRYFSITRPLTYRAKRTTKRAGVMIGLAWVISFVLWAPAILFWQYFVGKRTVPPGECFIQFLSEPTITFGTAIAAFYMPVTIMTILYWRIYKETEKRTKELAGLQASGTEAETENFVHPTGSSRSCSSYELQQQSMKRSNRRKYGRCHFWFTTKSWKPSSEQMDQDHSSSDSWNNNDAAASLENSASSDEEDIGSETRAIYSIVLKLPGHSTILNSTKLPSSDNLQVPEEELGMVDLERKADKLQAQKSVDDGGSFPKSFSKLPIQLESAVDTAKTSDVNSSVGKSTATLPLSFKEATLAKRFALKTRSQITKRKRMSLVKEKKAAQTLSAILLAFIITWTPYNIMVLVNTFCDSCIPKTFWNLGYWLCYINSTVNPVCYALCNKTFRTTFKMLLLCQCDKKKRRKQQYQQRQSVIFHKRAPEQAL

Broadly, the Ki is the equilibrium dissociation constant of an inhibitor or competing ligand from its target. A high value points to a looser hold on the target. One may read the EC50 as the midpoint of the concentration-response curve. As to `CC(C)N(CC[C@H](c1ccccc1)c1cc(CCCCCOc2ccc(CCNC[C@H](O)c3ccc(O)c(NS(C)(=O)=O)c3)cc2)ccc1O)C(C)C` [Example 17, N-(5-{(1R)-2-[(2-{4-[(5-{3-[(1R)-3-(diisopropylamino)-1-phenylpropyl]-4-hydroxyphenyl}pentyl)oxy]phenyl}ethyl)amino]-1-hydroxyethyl}-2-hydroxyphenyl)methanesulfonamide], the Ki in experiment [1] was found to be 3 nM. In experiment [2], the EC50 was 0.57 nM.

Regarding `CC(C)N(CC[C@H](c1ccccc1)c1cc(CCOc2ccc(CCNC[C@H](O)c3ccc(O)c(NS(C)(=O)=O)c3)cc2)ccc1O)C(C)C` [Example 19, N-{5-[(1R)-2-({2-[4-(2-{3-[(1R)-3-(diisopropylamino)-1-phenylpropyl]-4-hydroxyphenyl}ethoxy)phenyl]ethyl}amino)-1-hydroxyethyl]-2-hydroxyphenyl}methanesulfonamide succinate salt], the Ki in experiment [1] was found to be 0.3 nM. Moreover, the EC50 in experiment [2] stood at 0.2 nM.

`CC(C)N(CC[C@H](c1ccccc1)c1cc(CCOc2ccc(CC(C)(C)NC[C@H](O)c3ccc(O)c4[nH]c(=O)ccc34)cc2)ccc1O)C(C)C` [Example 20, 5-[(1R)-2-({2-[4-(2-{3-[(1R)-3-(diisopropylamino)-1-phenylpropyl]-4-hydroxyphenyl}ethoxy)phenyl]-11-dimethylethyl}amino)-1-hydroxyethyl]-8-hydroxyquinolin-2(1H)-one] had a Ki in experiment [1] of 0.39 nM. Also, the EC50 in experiment [2] is 0.028 nM.
